Assay results taken from patent US20180312473A1, “PHENAZINE DERIVATIVES AS ANTIMICROBIAL AGENTS” (priority 2015, published 2018).
≈ marks a conversion by molar mass, not a printed value. Where “and” joins values, the source holds several entries; their conditions need not be identical. Equal entries are not always repeated. Where two headings read alike, the source gives them in different places. Marks after values point to notes of the source that are not given here.

How the values were obtained:
[1] = tested on: MRSA-2 (methicillin-resistant Staphylococcus aureus clinical isolate); test: MIC assay (broth microdilution, CLSI); type: cell-based; details: Staphylococcus aureus, MRSA, read-out: MIC, MRSA-2
[2] = tested on: MRSA-1 (methicillin-resistant Staphylococcus aureus clinical isolate); test: MIC assay (broth microdilution, CLSI); type: cell-based; details: Staphylococcus aureus, MRSA, read-out: MIC, MRSA-1
[3] = tested on: Staphylococcus epidermidis (ATCC 35984), MRSE; test: MIC assay (broth microdilution, CLSI); type: cell-based; details: Staphylococcus epidermidis
[4] = tested on: Enterococcus faecium (ATCC 700221), VRE; test: MIC assay (broth microdilution, CLSI); type: cell-based
[5] = tested on: M. tuberculosis H37Ra (ATCC 25177); test: Mycobacterium tuberculosis MIC assay; type: cell-based
How it was run: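 Culture diluted to OD600 0.01 and exposed to compounds in 0.5% final DMSO, each compound tested in three rows. Growth read as OD600 absorbance. Data from three independent experiments.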

in vitro = type: cell-based; details: human
HeLa cells = test: in vitro; type: cell-based
[6] = tested on: MRSA-2 planktonic cells and biofilms; test: Calgary Biofilm Device (CBD) assay, MBC/MBEC; type: cell-based, Staphylococcus aureus; details: for MBC: Staphylococcus aureus, MRSA
[7] = tested on: MRSE (S. epidermidis ATCC 35984) planktonic cells and biofilms; test: Calgary Biofilm Device (CBD) assay, MBC/MBEC; type: cell-based, Staphylococcus epidermidis; details: for MBC: Staphylococcus epidermidis
[8] = tested on: VRE (E. faecium ATCC 700221) planktonic cells and biofilms; test: Calgary Biofilm Device (CBD) assay, MBC/MBEC; type: cell-based, Enterococcus faecium; details: for MBC: Enterococcus
A. baumannii 19606 = test: MIC assay (broth microdilution, CLSI); type: cell-based, Acinetobacter baumannii; details: Acinetobacter baumannii, 19606; read-out: A. baumannii 19606 MIC
[9] = Aqueous solubility under MIC assay conditions; type: physicochemical; details: MIC assay media, 37 °C, aqueous buffer; read-out: [aq. soluble]
[10] = tested on: methicillin-resistant S. aureus (MRSA) strains; test: MIC assay, values summarised over MRSA strains; type: cell-based, Staphylococcus aureus
[11] = tested on: S. aureus clinical isolate SA 138; test: MIC assay (broth microdilution, CLSI); details: Staphylococcus aureus, read-out: MIC, SA 138
[12] = tested on: MRSA BAA-44 planktonic cells and biofilms; test: Calgary Biofilm Device (CBD) assay, MBC/MBEC; details: Staphylococcus aureus, read-out: MRSA BAA-44 MBC
[13] = Table 2B, a midpoint of 2-fold range, * partial growth inhibition at highest concentration
[14] = Table 7, a midpoint of 2-fold range, b lowest concentration tested
[15] = Table 2B, b lowest concentration tested
[16] = Table 2B, read-out: MIC, Staphylococcus epidermidis (ATCC 35984)
[17] = Table 7, read-out: MIC, MRSE 35984
[18] = Table 7, b lowest concentration tested, read-out: MIC, VRE 700221
[19] = Mycobacterium tuberculosis, Table 7, read-out: MIC, M. tuberculosis H37Ra
[20] = Table 5, a/b midpoint of 2-/4-fold range, read-out: MRSA-2 MBC
[21] = Table 8, a/b 2-/4-fold range in independent experiments, read-out: MRSA-2 MBC
[22] = viable biofilm cell count from CBD peg
[23] = Table 8, read-out: MRSE 35984 MBC

Row | Compound | MIC [1, 13] [µM] | MIC [1, 14] [µM] | MIC [2, 15] [µM] | MIC ([2]; Table 11) [µM] | MIC [3, 16] [µM] | MIC [3, 17] [µM] | MIC [4, 18] [µM] | MIC [5, 19] [µM] | IC50 at 24 h (in vitro) [µM] | IC50 (HeLa cells; human, 24 h) [µM] | MBC [6, 20] [µM] | MBC [6, 21] [µM] | MBC ([7]; Table 5, read-out: MRSE MBC) [µM] | MBC [7, 23] [µM] | MIC (A. baumannii 19606) [µM] | solubility at 16 h [9] [µM] | MIC [11] [µM] | MBC [12] [µM] | other results
1 | Oc1c(Br)cc(I)c2nc3cc(Cl)c(Cl)cc3nc12 [Compound 14, 2-bromo-7,8-dichloro-4-iodo-1-hydroxyphenazine] | 3.13 (≈ 1.47 µg/mL) | 3.13 (≈ 1.47 µg/mL) | 0.1 (≈ 0.047 µg/mL) | 0.1 (≈ 0.047 µg/mL) | 3.13 (≈ 1.47 µg/mL) | 3.13 (≈ 1.47 µg/mL) | 0.1 | 12.5 | > 50 | > 50 | 3.13 (≈ 1.47 µg/mL) | 3.13 (≈ 1.47 µg/mL) | 1.56 (≈ 0.733 µg/mL) | 1.56 (≈ 0.733 µg/mL) | > 100 | 200 (≈ 94 µg/mL) | 0.59 (≈ 0.277 µg/mL) | 12.5 (≈ 5.87 µg/mL) | MIC ([4]; Enterococcus faecium, Table 2A, read-out: MIC, Enterococcus faecium (ATCC 700221)): < 0.1 µM; MIC ([4]; Enterococcus faecium, Table 2B, b lowest concentration tested, read-out: MIC, Enterococcus faecium (ATCC 700221)): 0.1 µM; MIC, VRE 700221 ([4]; Table 7, b lowest concentration tested): 0.10^b μM; MIC ([4]; read-out: MIC, VRE): 0.05 µg/mL; MIC ([5]; Mycobacterium tuberculosis, 168 h, M. tuberculosis H37Ra, 7 days, read-out: Mtb MIC): 12.5 µM; MIC ([5]; Table 7, read-out: MIC, M. tuberculosis H37Ra): 12.5 µM; HeLa cytotoxicity at 50 μM (HeLa cells): no cytotoxicity was observed; HeLa cytotoxicity at 50 μM (HeLa cells; human, 24 h, 50 μM): No HeLa cell death; HeLa cell death at 100 μM (HeLa cells; human, 24 h, 100 μM): ~70%; persister cells eradicated within MRSA biofilms at the MBEC [6, 22]: > 99.9%; persister cells eradicated within MRSA-2 biofilms at the MBEC [6, 22]: > 3 log; MRSE MBEC ([7]; Table 5, listed as 214): 1.56 μM and 1.56/1.56 μM; MBC ([8]; Table 5, c lowest concentration tested, read-out: VRE MBC): 0.2 µM (≈ 0.094 µg/mL); MBC ([8]; Table 8, c lowest concentration tested, read-out: VRE 700221 MBC): 0.2 µM (≈ 0.094 µg/mL); VRE MBEC ([8]; Table 5, c lowest concentration tested, listed as 214): 0.20 μM and 0.20^c/0.20^c μM; growth inhibition activity against at least one MRSA strain [10]: sub-micromolar
2 | Oc1ccc(I)c2nc3cc(Cl)c(Cl)cc3nc12 [Compound 12, 7,8-Dichloro-4-iodo-1-hydroxyphenazine] | 0.39 (≈ 0.152 µg/mL) | 0.39 (≈ 0.152 µg/mL) | 0.2 (≈ 0.0782 µg/mL) | 0.3 (≈ 0.117 µg/mL) | 0.78 (≈ 0.305 µg/mL) | 0.78 (≈ 0.305 µg/mL) | 3.13 | 3.13 | > 100 | > 100 | 25 (≈ 9.77 µg/mL) | 25 (≈ 9.77 µg/mL) | 9.38 (≈ 3.67 µg/mL) | 9.38 (≈ 3.67 µg/mL) | > 100 | 200 (≈ 78.2 µg/mL) | 0.59 (≈ 0.231 µg/mL) | 75 (≈ 29.3 µg/mL) | MIC ([1]; Table 2A): 0.39 µM (≈ 0.152 µg/mL); MIC ([3]; Table 2A, read-out: MIC, Staphylococcus epidermidis (ATCC 35984)): 0.78 µM (≈ 0.305 µg/mL); MIC ([4]; Enterococcus faecium, read-out: MIC, Enterococcus faecium (ATCC 700221), Table 2B, b lowest concentration tested): 3.13 µM; MIC ([4]; read-out: MIC, VRE 700221, Table 7, b lowest concentration tested): 3.13 to 6.25 µM; MIC ([5]; Mycobacterium tuberculosis, 168 h, read-out: Mtb MIC): 3.13 µM; MIC ([5]; Mycobacterium tuberculosis, read-out: MIC, M. tuberculosis): ~1 µg/mL; MBC ([6]; Table 4, read-out: MBC, MRSA-2): 25 µM (≈ 9.77 µg/mL); MRSE MBEC ([7]; Table 5): 75 µM; MBC ([8]; read-out: VRE 700221 MBC): 3.13 µM (≈ 1.22 µg/mL); MIC ([10]; Staphylococcus aureus, MRSA, range over the MRSA strains/isolates tested, read-out: MIC against MRSA strains): 0.15 to 0.59 µM (≈ 0.0586 to 0.231 µg/mL)
